From patent US8791144B2, “Substituted N-phenyl-1-(4-Pyridinyl)-1H-pyrazol-3-amines” (Janssen Pharmaceutica NV, priority 2009, dated 2014)

Key:
hα7-wt nAChR = hα7-wt nAChR (Homo sapiens, UniProt P36544); experiment: Ca2+ flux imaging (FDSS): potentiation of the choline response; type: cell-based; conditions: Ca2+ assay as described in D.1, potentiation of choline response, hα7-wt nAChR; for Emax: read-out: % Efficacy; for EC50: read-out: Potency (pEC50) (converted)
Description: • a) Assay Buffer • Hanks buffered saline solution (HBSS, Invitrogen, Belgium), supplemented with 10 mM HEPES (Invitrogen, Belgium), CaCl2 to a final concentration of 5 mM, 0.1% Bovine serum albumin (Sigma-Aldrich NV, Belgium). • b) Calcium-Sensitive Dye—Fluo-4AM • Fluo-4AM (Molecular Probes, USA) was dissolved in DMSO containing 10% Pluronic acid (Molecular Probes, USA) to give a stock solution which was diluted in assay buffer supplemented with 5 mM probenicid (Sigma, Aldrich NV, Belgium) to give a final concentration of 2 μM. • c) 384-Well Plates • Black 384 well plate black/clear plates, PDL pre-coated (Corning, Incorporated, USA) • d) Calcium Flux Measurement • A Functional drug screening system (FDSS, Hamamatsu) was used to measure intracellular free-calcium flux signals. Method
Monolayers of hα7-wt nAChR-expressing cells were grown in multi-well plates, in particular black-sided, transparent bottomed 384 well plates coated with poly-D-lysine for 24 hours prior to loading with a fluorescent calcium indicator, in a particular embodiment loading with fluo-4AM for up to 120 minutes.
PAM activity was detected in real time by applying the compounds to be tested to the loaded cells along with a α7 nicotinic receptor agonist during constant monitoring of cellular fluorescence in a FDSS. Compounds giving peak fluorescent responses greater than the response due to agonist alone, were considered to be α7 nAChR PAM's. In a particular embodiment, the α7 nicotinic receptor agonist was choline, a more particular embodiment choline applied at a sub-maximal concentration of 100 μM. In a further setting of the present invention the compounds to be tested were applied prior to the α7 nicotinic receptor agonist, in a particular embodiment up to 10 minutes prior to the agonist.
A control response to choline was calculated on each plate from the difference in peak in fluorescence in wells receiving either choline or assay buffer alone. Compounds of the present invention were tested at a concentration range from 0.01 μM to 30 μM. Compounds were considered to have an interesting activity when they potentiated the choline signal at least with 200% when tested at a concentration of 30 μM (the efficacy of 100 μM choline was defined as 100% in the absence of a PAM). An EC50 (or pEC50) was determined as a concentration relating to half the maximal effect, when a clear sigmoidal curve with top plateau was obtained.

Sequence of hα7-wt nAChR (P36544 23-502): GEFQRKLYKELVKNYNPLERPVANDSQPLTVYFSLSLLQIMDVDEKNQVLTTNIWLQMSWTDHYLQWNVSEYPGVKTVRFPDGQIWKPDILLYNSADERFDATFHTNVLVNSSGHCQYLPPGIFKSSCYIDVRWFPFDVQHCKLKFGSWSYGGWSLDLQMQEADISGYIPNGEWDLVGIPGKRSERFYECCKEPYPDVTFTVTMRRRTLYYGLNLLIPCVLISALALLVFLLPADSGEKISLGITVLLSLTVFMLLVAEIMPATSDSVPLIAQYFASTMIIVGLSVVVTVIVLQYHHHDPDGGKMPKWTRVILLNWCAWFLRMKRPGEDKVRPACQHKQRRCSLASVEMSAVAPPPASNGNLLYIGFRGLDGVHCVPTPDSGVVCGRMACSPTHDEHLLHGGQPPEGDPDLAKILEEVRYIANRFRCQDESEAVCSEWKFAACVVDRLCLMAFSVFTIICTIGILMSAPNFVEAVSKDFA

SMILES	Emax (hα7-wt nAChR) [%]	EC50 (hα7-wt nAChR) [nM]	melting point [°C]
Cc1cc(-n2nc(Nc3cccc(Cl)c3F)cc2CC#N)ccn1 [Compound 63, 3-[(3-chloro-2-fluorophenyl)amino]-1-(2-methyl-4-pyridinyl)-1H-pyrazole-5-acetonitrile]	434	3890	
COc1cc(Nc2cc(CC#N)n(-c3ccnc(C)c3)n2)cc(C(F)(F)F)c1 [Compound 3, 3-[[3-methoxy-5-(trifluoromethyl)phenyl]amino]-1-(2-methyl-4-pyridinyl)-1H-pyrazole-5-acetonitrile]	930	1950	183.8
COc1cc(Nc2cc(CCCO)n(-c3ccnc(C)c3)n2)cc(C(F)(F)F)c1 [Compound 7, 3-[[3-methoxy-5-(trifluoromethyl)phenyl]amino]-1-(2-methyl-4-pyridinyl)-1H-pyrazole-5-propanol]		2880	
CC[C@@H](O)Cc1cc(Nc2cccc(Cl)c2F)nn1-c1ccnc(C)c1 [Compound 59, (alphaR)-3-[(3-chloro-2-fluorophenyl)amino]-alpha-ethyl-1-(2-methyl-4-pyridinyl)-1H-pyrazole-5-ethanol]		692	168.1
CNC(=O)Cc1cc(Nc2ccc3c(c2)OC(F)(F)O3)nn1-c1ccnc(C)c1 [Compound 97, 3-[(2,2-difluoro-1,3-benzodioxol-5-yl)amino]-N-methyl-1-(2-methyl-4-pyridinyl)-1H-pyrazole-5-acetamide]		2510	271.2
CC[C@@H](O)Cc1cc(Nc2ccc(F)c(F)c2F)nn1-c1ccnc(C)c1 [Compound 13, (alphaR)-alpha-ethyl-1-(2-methyl-4-pyridinyl)-3-[(2,3,4-trifluorophenyl)amino]-1H-pyrazole-5-ethanol]		316	144.4
COC(=O)Cc1cc(Nc2cccc(OC(F)(F)F)c2)nn1-c1ccnc(C)c1 [Compound 109, 1-(2-methyl-4-pyridinyl)-3-[[3-(trifluoromethoxy)phenyl]amino]-1H-pyrazole-5-acetic acid methyl ester]		2000	115.8
CC[C@@H](O)Cc1cc(Nc2cc(Cl)cc(OC)c2)nn1-c1ccnc(C)c1 [Compound 62, (alphaR)-3-[(3-chloro-5-methoxyphenyl)amino]-alpha-ethyl-1-(2-methyl-4-pyridinyl)-1H-pyrazole-5-ethanol]		427	121.9
Cc1cc(-n2nc(Nc3cccc(C(F)(F)F)c3)cc2CC#N)ccn1 [Compound 40, 1-(2-methyl-4-pyridinyl)-3-[[3-(trifluoromethyl)phenyl]amino]-1H-pyrazole-5-acetonitrile]		4370	
Cc1cc(-n2nc(Nc3cccc(OC(F)(F)F)c3)cc2CC#N)ccn1 [Compound 107, 1-(2-methyl-4-pyridinyl)-3-[[3-(trifluoromethoxy)phenyl]amino]-1H-pyrazole-5-acetonitrile]		2820	180.2
CC[C@@H](O)Cc1cc(Nc2cc(F)cc(Cl)c2)nn1-c1ccnc(C)c1 [Compound 60, (alphaR)-3-[(3-chloro-5-fluorophenyl)amino]-alpha-ethyl-1-(2-methyl-4-pyridinyl)-1H-pyrazole-5-ethanol]		240	182.4

The remaining lines, values ahead:

Emax (hα7-wt nAChR) [%]	EC50 (hα7-wt nAChR) [nM]	melting point [°C]	SMILES
705	309	170.4	CC[C@@H](O)Cc1cc(Nc2cc(F)c(F)c(F)c2)nn1-c1ccnc(C)c1 [Compound 19, (alphaR)-alpha-ethyl-1-(2-methyl-4-pyridinyl)-3-[(3,4,5-trifluorophenyl)amino]-1H-pyrazole-5-ethanol]
	2820	155.3	Cc1cc(-n2nc(Nc3ccc(F)c(F)c3)cc2CO)ccn1 [Compound 15, 3-[(3,4-difluorophenyl)amino]-1-(2-methyl-4-pyridinyl)-1H-pyrazole-5-methanol]
	3390	169.2	Cc1cc(-n2nc(Nc3ccc(F)c(F)c3)cc2C)ccn1 [Compound 14, N-(3,4-difluorophenyl)-5-methyl-1-(2-methyl-4-pyridinyl)-1H-pyrazol-3-amine]
		252.9	CNC(=O)Cc1cc(Nc2ccc(F)c(F)c2)nn1-c1ccnc(C)c1 [Compound 27, 3-[(3,4-difluorophenyl)amino]-N-methyl-1-(2-methyl-4-pyridinyl)-1H-pyrazole-5-acetamide]
	372	139.8	Cc1cc(-n2nc(Nc3cccc(OC(F)(F)F)c3)cc2COCc2ccccc2)ccn1 [Compound 122, 1-(2-methyl-4-pyridinyl)-5-[(phenylmethoxy)methyl]-N-[3-(trifluoromethoxy)phenyl]-1H-pyrazol-3-amine]
	1450	148.1	COc1cc(Nc2cc(COCc3ccccc3)n(-c3ccnc(C)c3)n2)cc(C(F)(F)F)c1 [Compound 1, N-[3-methoxy-5-(trifluoromethyl)phenyl]-1-(2-methyl-4-pyridinyl)-5-[(phenylmethoxy)methyl]-1H-pyrazol-3-amine]
	562	124.4	Cc1cc(-n2nc(Nc3ccc4c(c3)OC(F)(F)O4)cc2CCCOCc2ccccc2)ccn1 [Compound 104, N-(2,2-difluoro-1,3-benzodioxol-5-yl)-1-(2-methyl-4-pyridinyl)-5-[3-(phenylmethoxy)propyl]-1H-pyrazol-3-amine]
	1020	108.2	Cc1cc(-n2nc(Nc3ccc(F)c(F)c3)cc2CCCOCc2ccccc2)ccn1 [Compound 32, N-(3,4-difluorophenyl)-1-(2-methyl-4-pyridinyl)-5-[3-(phenylmethoxy)propyl]-1H-pyrazol-3-amine]
